Values of other authors in patent publication US11610144B2, “Biosignature discovery for substance use disorder using statistical learning” (BioRealm LLC, priority 2018, dated 2023).
“Also recorded” adds a separate entry of the source.

Key:
smokers = conditions: meta-analyses of RCTs
[1] = tested on: smokers, slow and normal nicotine metabolizers; conditions: NMR from direct biochemical measurement

Structure (SMILES) | smoking cessation efficacy compared with placebo (smokers) | response to treatment, VAR versus NRT [1]
CC(NC(C)(C)C)C(=O)c1cccc(Cl)c1 (stereo not drawn) [BUP, bupropion] | significantly more effective than placebo | –
c1cnc2cc3c(cc2n1)[C@@H]1CNC[C@H]3C1 [VAR, varenicline] | significantly more effective than placebo | responded significantly better than those randomized to NRT; also recorded: responded significantly better to VAR than to NRT
